For data set [1], the system named is MPTP. Nature of the data set: Ca2+-induced depolarisation (membrane potential, Rhodamine-123) of rat brain mitochondria. The class given is biochemical. Conditions: 50 μM Ub5 alone.
Procedure: (B) Ca^2+-induced depolarisation of rat brain mitochondria. The medium used was as in the legend to FIG. 4, except that 0.5 μM Rhodamine-123 was added instead of Calcium Green-5N, and MPTP was induced by addition of 20 μM Ca^2+. Trace a, control (Ca^2+ alone), b, 300 nM Spiro[cyclopentane-1,5′-[5H]dibenzo[a,d]cyclohepten]-2-one,10′,11′-dihydro-3-methylene-, c, 300 nM Spiro[cyclopentane-1,5′-[5H]dibenzo[a,d]cyclohepten]-2-one,10′,11′-dihydro-3-methylene- and 50 μM Ub5.
The effect of Spiro[cyclopentane-1,5′-[5H]dibenzo[a,d]cyclohepten]-2-one,10′,11′-dihydro-3-methylene- at inhibiting MPTP was also investigated in mitochondria isolated from rat forebrain. […] Due to the difficulties mentioned above, the effect of Spiro[cyclopentane-1,5′-[5H]dibenzo[a,d]cyclohepten]-2-one,10′,11′-dihydro-3-methylene- on MPTP in brain mitochondria was more accurately investigated by subjecting mitochondria isolated from rat forebrain to a series of Ca^2+ pulses (5 μM, ˜150 nmol mg protein^−1) and by monitoring extramitochondrial Ca^2+ or using fluororescent probes. […] Virtually identical results were obtained from experiments where Δψm was monitored after a series of Ca^2+ additions (5 μM each). Each Ca^2+ additions caused a reversible decreases in Δψm, until MPTP opening completely collapsed Δψm and no further fluorescence increase could observed after addition of the protonophore FCCP.
The target in the next data set is T1, VDAC1 (Rattus norvegicus, UniProt Q9Z2L0).
T1 construct: from tissue; host or cells: Percoll-purified rat brain and liver mitochondria
In words: Affinity labeling of rat mitochondria with the tritiated spiro compound, SDS-PAGE and fluorography. The class given is binding. Conditions: rat brain mitochondria; 10 nM radiolabel. On the procedure: FIG. 6: Affinity-labeling of isolated rat brain (A) and liver (B) mitochondria. Mitochondrial preparations were incubated in the presence of 10 nM Spiro[cyclopentane-1,5′-[5H]dibenzo[a,d]cyclohepten]-2-one,10′,11′-t2-10′,11′-dihydro-3-methylene- for 15 min at 25° C. in presence or absence of various concentrations of Spiro[cyclopentane-1,5′-[5H]dibenzo[a,d]cyclohepten]-2-one,10′,11′-dihydro-3-methylene-(unlabeled). Samples were submitted to SDS-PAGE (see Experimental Procedures section for details) and fluorography. The fluorograms of the gels are shown. The molecular mass scale (kDa) is shown in the ordinate.
(§1) FIG. 8: (A) Effect of monobromobimano (MBBM) and phenylarsino oxide (PhAO) on VDAC1 labeling by Spiro[cyclopentane-1,5′-[5H]dibenzo[a,d]cyclohepten]-2-one,10′,11′-t2-10′,11′-dihydro-3-methylene- in rat brain mitochondria. Experimental conditions were as in the legend to FIG. 5. (B) Effect of various MPTP inhibitors, atractyloside (ATR) and DIDS on VDAC1 labeling by Spiro[cyclopentane-1,5′-[5H]dibenzo[a,d]cyclohepten]-2-one,10′,11′-t2-10′,11′-dihydro-3-methylene- in rat brain mitochondria. Mitochondria were exposed to DIDS for 5 min before rinsing for removal of the free agent and labeling with Spiro[cyclopentane-1,5′-[5H]dibenzo[a,d]cyclohepten]-2-one,10′,11′-t2-10′,11′-dihydro-3-methylene.
Percoll purified mitochondria (˜30 μg protein per sample) were incubated in the presence of 10 nM Spiro[cyclopentane-1,5′-[5H]dibenzo[a,d]cyclohepten]-2-one,10′,11′-t2-10′,11′-dihydro-3-methylene- in a final volume of 200 μl. After incubation for 15 min at 25° C., samples were centrifuged at 25000×g and the mitochondrial pellet rinsed twice with buffer. Samples were then solubilized in sample buffer containing β-mercaptoethanol (1 h at 37° C.) and subjected to SDS-polyacrylamide gel-electrophoresis (SDS-PAGE) on Tris-glycine Novex pre-cast mini-gels (12% monomer concentration, Invitrogen BV, The Netherlands). After Coomassie Blue staining, gels were processed for fluorography by soaking in Amplify™ (Amersham Biosciences), drying and exposing to X-ray BioMax MS film with BioMax MS intensifying screen (Kodak) at −80° C. for the appropriate time.
as §1, with “Effect” for “FIG. 8: (A) Effect”, “monobromobimano” for “monobromobimano (MBBM)”, “oxide” for “oxide (PhAO)”, “Example 12 (FIG. 8A).” for “the legend to FIG. 5. (B)”, “Spiro[cyclopentane-1,5′-[5H]dibenzo[a,d]cyclohepten]-2-one,10′,11′-t2-10′,11′-dihydro-3-methylene (FIG. 8B).” for “Spiro[cyclopentane-1,5′-[5H]dibenzo[a,d]cyclohepten]-2-one,10′,11′-t2-10′,11′-dihydro-3-methylene.”

Data set [2] addresses T2, MPTP (Rattus norvegicus, UniProt Q9Z2L0).
T2 construct: other: n=2; glutamate/malate; other: glutamate/malate; 20 min; mean±SEM; unit not given; other: 300 nM; relieved by 50 μM Ub5
In words: Ca2+-retention capacity of rat brain mitochondria (Calcium Green-5N). Format: biochemical. The procedure:
FIG. 4: (A) Effect of Spiro[cyclopentane-1,5′-[5H]dibenzo[a,d]cyclohepten]-2-one,10′,11′-dihydro-3-methylene- and CsA on Ca^2+-retention capacity of rat brain mitochondria. The incubation medium contained 0.2 M sucrose, 10 mM Tris-Mops, pH 7.4, 1 mM Pi-Tris, 5 μM EGTA and 5 mM glutamate/2.5 mM malate, buffered to pH 7.4 with Tris, containing 0.01% (w/v) bovine serum albumin and 1 μM Calcium Green-5N. The final volume was 2.5 ml. Trace (a) control, (b) 1 μM CsA, (c) 1 μM Spiro[cyclopentane-1,5′-[5H]dibenzo[a,d]cyclohepten]-2-one,10′,11′-dihydro-3-methylene- and (d) 1 μM CsA plus 1 μM Spiro[cyclopentane-1,5′-[5H]dibenzo[a,d]cyclohepten]-2-one,10′,11′-dihydro-3-methylene-. Each fluorescence spike corresponds to addition of 5 μM Ca^2+. (B) Comparison of Ca^2+-retention capacity in liver (a) and brain mitochondria (b).
Effect of Spiro[cyclopentane-1,5′-[5H]dibenzo[a,d]cyclohepten]-2-one,10′,11′-dihydro-3-methylene- and CsA on Ca^2+-retention capacity of rat brain mitochondria (FIG. 4). Measurement of extramitochondrial Ca^2+ was determined using a Perkin-Elmer LS-50B fluorimeter controlled by the FL WinLab computer program. […] The final volume was 2.5 ml and the cuvette was thermostated at 25° C. Brain mitochondria were then subjected to a train of 5 μM Ca^2+ additions (˜150 nmol mg protein^−1). Extramitochondrial Ca^2+ was monitored at excitation/emission wavelengths of 505-535. […] The Ca^2+-retention capacity in liver (a) and brain mitochondria (b) were also compared (FIG. 4B).
The effect of Spiro[cyclopentane-1,5′-[5H]dibenzo[a,d]cyclohepten]-2-one,10′,11′-dihydro-3-methylene- at inhibiting MPTP was also investigated in mitochondria isolated from rat forebrain. […] Due to the difficulties mentioned above, the effect of Spiro[cyclopentane-1,5′-[5H]dibenzo[a,d]cyclohepten]-2-one,10′,11′-dihydro-3-methylene- on MPTP in brain mitochondria was more accurately investigated by subjecting mitochondria isolated from rat forebrain to a series of Ca^2+ pulses (5 μM, ˜150 nmol mg protein^−1) and by monitoring extramitochondrial Ca^2+ or using fluororescent probes.

Another data set addresses T3, MPTP (Rattus norvegicus).
T3 construct: other: n=2; glutamate/malate; other: glutamate/malate; 20 min; mean±SEM; unit not given; other: 300 nM; relieved by 50 μM Ub5
Nature of the data set: Ca2+-induced swelling (MPTP) in rat liver mitochondria energised with succinate. Conditions: succinate 5 mM + 2 μM rotenone; 80 μM Ca2+; ΔA540 20 min after CaCl2. The class given is biochemical. On the procedure: Ca^2+-induced swelling (sucrose permeability) in energized mitochondria was assayed at 25° C. in 96 well-plates by measuring changes in absorbance at 540 nm by means of a […]ax 250 spectrophometer controlled by the SOFTmax PRO™ software (Molecular Devices, Switzerland). The incubation medium contained 0.2 M sucrose, 10 mM Tris-Mops, pH 7.4, 1 mM Pi-Tris, 5 μM EGTA. Succinate (5 mM, in the presence of 2 μM rotenone) or 5 mM glutamate/2.5 mM malate, buffered to pH 7.4 with Tris, were used as respiratory substrates. After a short (˜5 min) preincubation in presence or absence of test compounds, mitochondrial swelling was induced by the addition of 20 μl CaCl2 at final concentrations ranging from 40 to 80 μM, depending on respiratory substrates and Ca^2+ sensitivity of the mitochondrial preparation. The final incubation volume was 0.2 ml and the concentration of mitochondria was ˜0.5 mg mitochondrial protein ml^−1. Swelling kinetics was followed for up to 30 min at 25° C. Absorbance readings were taken every 12 sec and the plate was shaken for 3 s between readings to ensure oxygen diffusion during the experiment and to avoid sedimentation of the mitochondria.
The incubation medium contained 0.2 M sucrose, 10 mM Tris-Mops, pH 7.4, 1 mM Pi-Tris, 5 μM EGTA.

In data set [3] the test system is T4, MPTP.
T4 construct: other: n=2; 30 min after addition of 200 μM Ca2+
Nature of the data set: Ca2+-induced swelling in deenergized liver mitochondria. The class given is biochemical. Conditions: n=2; 30 min after addition of 200 μM Ca2+; read-out: EC50 of MPTP inhibition in deenergized mitochondria.

For a further data set, the target named is Cyp-D (Homo sapiens, UniProt P30405). Nature of the data set: Cyp-D peptidyl prolyl cis-trans isomerase enzymatic activity. The class given is biochemical. Conditions: at concentrations completely blocking MPTP.
The subject of data set [4] is mitochondrial respiration. In words: Mitochondrial respiration (oxygen consumption). Format: biochemical. Conditions: at concentrations completely blocking MPTP. On the procedure:
Isolated liver mitochondria (˜0.5 mg protein ml^−1) were incubated in a batch mode in the presence of 20 nM [^3H]TPP ([^3H]Tetraphenylphosphonium ([^3H]TPP, 24-29 Ci/mmol) from Amersham Biosciences, Switzerland) for 15 min at 25° C. Aliquots (100 μl) of the mixture were then distributed into 96-well plates containing 100 μl of the test compound and the incubation prolonged for 15 min at 25° C. Samples were then filtered through 0.3% (v/v) polyethyleneimmine-treated GF/B glass fiber filters using a 96-channel cell harvester and the filters washed twice with 1 ml of buffer. Fifty μl of MICROSCINT 40 (Packard) were then added to each well, before counting for radioactivity in a TopCount scintillation counter (Packard). Non-specific uptake was determined in the presence of 1 mM unlabeled TPP or 1 μM carbonylcianide-p-trifluoromethoxyphenyl hydrazone (FCCP). Mitochondrial oxygen consumption was measured polarographically at 25° C. using a Clark-type electrode.
Compounds found to inhibit MPTP where then counter-screened using uptake of the potentiometric probe [^3H]-TPP (Hoek, J. B., Nicholls, D. G. & Williamson, J. R. (1980) J. Biol. Chem. 255, 1458-1564) for determining in a semi-quantitative, but rapid way whether they interfered with mitochondrial respiration (e.g. protonophores). […]

The mark [5] stands for this setting: Ca2+ pulses, rat brain mitochondria.

Read-outs that look alike come from different tables or passages of the source.

T1 sequence (Q9Z2L0 whole entry): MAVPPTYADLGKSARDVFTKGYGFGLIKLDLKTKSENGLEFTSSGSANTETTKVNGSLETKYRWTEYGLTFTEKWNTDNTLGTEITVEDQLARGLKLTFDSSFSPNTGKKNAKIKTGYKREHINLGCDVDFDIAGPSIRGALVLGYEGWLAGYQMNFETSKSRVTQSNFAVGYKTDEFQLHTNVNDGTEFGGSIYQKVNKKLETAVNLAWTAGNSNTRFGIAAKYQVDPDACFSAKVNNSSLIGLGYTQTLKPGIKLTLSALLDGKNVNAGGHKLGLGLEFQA
T3 sequence (Q9Z2L0 2-283): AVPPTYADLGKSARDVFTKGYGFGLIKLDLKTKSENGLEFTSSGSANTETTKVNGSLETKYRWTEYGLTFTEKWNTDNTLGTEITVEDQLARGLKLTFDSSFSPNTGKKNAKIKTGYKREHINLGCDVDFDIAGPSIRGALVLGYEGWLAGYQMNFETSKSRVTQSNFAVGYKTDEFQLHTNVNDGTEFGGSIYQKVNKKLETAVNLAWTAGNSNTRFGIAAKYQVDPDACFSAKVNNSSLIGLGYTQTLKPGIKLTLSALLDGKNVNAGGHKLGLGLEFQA
T2 sequence (Q9Z2L0 2-283): as above
Cyp-D, sequence (P30405 30-207): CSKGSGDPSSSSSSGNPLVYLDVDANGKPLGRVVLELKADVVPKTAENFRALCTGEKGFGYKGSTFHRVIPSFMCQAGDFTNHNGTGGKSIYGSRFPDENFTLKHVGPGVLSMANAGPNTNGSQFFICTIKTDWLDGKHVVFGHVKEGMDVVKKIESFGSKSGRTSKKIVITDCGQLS

As to `COC1=C(OC)C(=O)C(C/C=C(\C)CC/C=C(\C)CC/C=C(\C)CC/C=C(\C)CCC=C(C)C)=C(C)C1=O` [Ub5, ubiquinone5, reference compound], the “Effect of Ub5 alone” value in the data set on MPTP [1] is recorded as “no effect”.

As to `CCN(CC)CC1COc2ccc(Br)cc2C1=O` (stereo not shown) [6-bromo-3-diethylaminomethyl-chroman-4-one], on VDAC1, the “Effect on VDAC1 labeling (incorporation of radioactivity) by the tritiated spiro compound” value (“Effect on VDAC1 labeling” for short) is reported as “inhibited”.

Take `CO[C@H](C/C=C\C=C\CC/C=C/C[C@H](C)/C=C/C(=C\C(=O)O)CC(=O)O)/C(C)=C\C=C(/C)C(=O)O` [Bongkrekic acid]: the “Additive effect when combined with the spiro compound (Example 2)” value (shortened to “Additive effect when combined”) on MPTP [2] (setting [5]) is on record as “additive”. The “Effect on VDAC1 labeling” value at VDAC1 is recorded as “did not affect”. Also, the EC50 on MPTP (Rattus norvegicus) came to 11.5 µM.

In the case of `CN1CCN(CCCN2c3ccccc3Sc3ccc(C(F)(F)F)cc32)CC1` [Trifluoroperazine], the “Additive effect when combined” value on MPTP [2] was “additive”. The “Effect on VDAC1 labeling” value at VDAC1 was “did not affect”. For the same compound, the EC50 at MPTP (Rattus norvegicus) was 9.4 µM.

`C=C1[C@@H]2CC[C@H]3[C@]4(C)C[C@H](O[C@@H]5O[C@H](CO)[C@@H](OS(=O)(=O)O)[C@H](OS(=O)(=O)O)[C@H]5OC(=O)CC(C)C)C[C@@H](C(=O)O)[C@H]4CC[C@]3(C2)[C@H]1O` [ATR, atractyloside]: the “Effect on VDAC1 labeling” value at VDAC1 is “did not affect”.

Turning to `O=S(=O)(O)c1cc(N=C=S)ccc1C=Cc1ccc(N=C=S)cc1S(=O)(=O)O` [DIDS, 4,4′-diisothiocyanatostilbene-2,2′-disulfonic acid], the “Effect on VDAC1 labeling” value on VDAC1 is “appeared to inhibit”.

For `COC1=C(OC)C(=O)C(C)=CC1=O` [Ubiquinone0], at MPTP [2] (setting [5]), the “Additive effect when combined” value is reported as “no such additive effect”. At VDAC1, the “Effect on VDAC1 labeling” value is reported as “Inhibition”. Besides, the values for the EC50 in the data set on MPTP [3] and on MPTP (Rattus norvegicus) were 4.9 µM and 23.2 µM, respectively.

In the case of `C=C1COc2ccc(Br)cc2C1=O` [6-bromo-3-methylene-chroman-4-one], the “Inhibition of Cyp-D peptidyl prolyl cis-trans isomerase activity” value at Cyp-D is listed as “did not inhibit”. Also, the “Additive effect when combined” value at MPTP [2] (setting [5]) is listed as “no additive effect”. The “Effect on VDAC1 labeling” value at VDAC1 was “inhibited”. In addition, the EC50 in the data set with MPTP [3] amounted to 2.8 µM. Further, the “Inhibition of mitochondrial respiration (basal, ADP-induced and uncoupled)” value in data set [4] was “did not inhibit”.

A word on the EC50: it is the concentration needed to bring the measured effect to its halfway point.
